Measured values as given in PMC11415492 (Nature Communications, 2024).
Several values for one entry are separate records, joined by “and”; a condition that tells them apart may be missing. Identical values can stand only once. Entries after “also recorded” stand apart in the source; their conditions may differ. Counter-ions that a name gives are not always drawn.

How the values were obtained:
[1] = system: male rats; details: cited from earlier work
[2] = system: mice; test: Open field test (locomotion, sedation); assay type: in vivo, mouse; set-up: unit not given here; details: groups not marked Female
Experimental: Mice were transferred to the testing room 30 min before the experiment to allow for acclimation. Body weight of each mouse was recorded. For experiments with antagonist, pre-treatment, the dosing and after application wait times were the same as for the tail-flick test. Mice were administered an ED50, ED80 or >ED95 doses of test compound (volume of injection 290–350 µL based on body weight). After injection, mice were returned to the home cage and allowed to rest for 30 min. Each mouse was then gently placed in the center of a clear Plexiglas arena (27.31 × 27.31 × 20.32 cm, Med Associates ENV-510) lit with dim light ( ~ 5 lux) and allowed to ambulate freely for 60 minutes. The locomotion of the mouse was tracked by infrared beams embedded along the X, Y, Z axes of the area and automatically recorded. Data was collected on Activity Monitor by Med Associates.
Statistical analysis was performed using the unpaired t-test, two-tailed with Welch’s correction to analyze total locomotion and a two-way ANOVA with Šidák’s multiple comparison test for post hoc comparison to analyze locomotion across time bins.

[3] = target: T1, hSERT (Homo sapiens, UniProt P31645); test: hSERT inhibition assay (APP+ fluorescence uptake); assay type: cell-based
T1 construct: expressed in transfected cells
Experimental: Stably transfected hSERT-HEK cellular cultures were maintained in Dulbecco’s Minimal Essential Medium (DMEM) with GlutaMAX (Gibco-Thermo Fisher Scientific, Waltham, MA) with the following additions: 10% (v/v) Fetal Bovine Serum (FBS, Atlanta Biologicals, Flowery Branch, GA), 100 U/mL Penicillin 10 μg/mL Streptomycin (Gibco-Thermo Fisher Scientific, Waltham, MA), and 500 μg/mL Geneticin (G418) (Sigma Aldrich, St. Louis, MO). Singly transfected cells were seeded at a density of 0.09 × 10^6 cells/well in poly-D-Lysine (Sigma Aldrich, St. Louis, MO) coated white solid-bottom 96-well plates (Greiner Bio-One, Kremsmünster, Austria). Cells were grown for 44 h in aqueous media at 37 °C under 5% CO2 atmosphere. […] A final solution of 120 μL of PBS was finally added to all corresponding wells for cell maintenance before measuring fluorescence uptake (BioTek H1MF plate reader (BioTek Instruments, Winooski, VT), APP+ excitation and emission wavelengths 436 and 500 nm). Recorded inhibitor values were first subtracted from vehicular values to quantify the respective fluorescence uptake. Data were analyzed using the dose-response-inhibitor nonlinear curve fitting model (log[inhibitor] vs response (four parameters) in Graphpad Prism 10 (Graphpad Software, La Jolla, CA).

[4] = system: monkeys; details: daily dosing prior to SA sessions (14 days); cited from earlier work
[5] = target: T2, hKOR (Homo sapiens, UniProt P41145); test: KOR [35S]GTPγS agonist assay (commercial); assay type: biochemical; details: Log [Drug]
T2 construct: expressed in transfected cells; host or cells: HEK-293T, transient (PEI)

[6] = target: T2, hKOR; test: G protein activation BRET assay; assay type: cell-based; details: for EC50: HEK-293T, (95% CI); for % effect at 100 µM: n = 4
[7] = system: GDNF; test: GDNF expression studies (ELISA, brain regions); assay type: in vivo, rat; details: aticaprant 1 mg/kg s.c. before oxa-noribogaine 40 mg/kg i.p.
Experimental: One day or five days after drug administration, rats from these groups as well as non-treated controls were decapitated, brains removed and placed in a stainless-steel rat brain matrix. Coronal slices were taken and the ventral tegmental area (VTA), nucleus accumbens (NAc) and medial prefrontal cortex (mPFC) were dissected and immediately frozen on dry ice. Total protein was isolated from pulverized tissue (8–15 mg tissue per region was harvested from one subject) from these regions. GDNF contents were assayed using the BiosSensis GDNF, Rat, Rapid™ ELISA assay (Biosensis Pty Ltd, SA, Australia). Protease (Thermo Scientific, Rockford, IL), and phosphatase inhibitors (Cocktails 1 and 2, Sigma-Aldrich, St. Louis, MO) were added to the extraction buffers. Regardless of sample weight 230uL of RIPA buffer (Sigma; R0278) was added into each sample along with protease inhibitors. […] Protein concentrations were measured using the bicinchoninic acid protein assay kit (Pierce, Rockford, IL, USA) on a spectrophotometer (iD5, Molecular Devices, Sunnyvale, CA). […] In a separate cohort, we assessed the ability of the kappa antagonist aticaprant to attenuate the oxa-noribogaine induced increase in GDNF in the VTA and mPFC five days after administration. […] Data were analyzed by protein and region using one way ANOVA with Tukey’s multiple comparison test for post hoc comparison.

[8] = system: male Fisher F-344 rats; details: preclinical assays in rats; cited from earlier work

T2 sequence (P41145 whole entry): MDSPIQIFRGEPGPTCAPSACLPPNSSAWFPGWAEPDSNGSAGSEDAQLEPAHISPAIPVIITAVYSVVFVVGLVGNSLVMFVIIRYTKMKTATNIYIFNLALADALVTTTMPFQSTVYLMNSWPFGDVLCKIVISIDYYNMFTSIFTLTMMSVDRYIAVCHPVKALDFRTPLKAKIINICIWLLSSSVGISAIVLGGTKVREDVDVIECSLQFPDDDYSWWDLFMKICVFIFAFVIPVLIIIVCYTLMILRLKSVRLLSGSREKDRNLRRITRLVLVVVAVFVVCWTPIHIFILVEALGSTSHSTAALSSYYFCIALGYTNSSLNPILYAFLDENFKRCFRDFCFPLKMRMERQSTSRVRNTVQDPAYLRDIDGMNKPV
T1 sequence (P31645 whole entry): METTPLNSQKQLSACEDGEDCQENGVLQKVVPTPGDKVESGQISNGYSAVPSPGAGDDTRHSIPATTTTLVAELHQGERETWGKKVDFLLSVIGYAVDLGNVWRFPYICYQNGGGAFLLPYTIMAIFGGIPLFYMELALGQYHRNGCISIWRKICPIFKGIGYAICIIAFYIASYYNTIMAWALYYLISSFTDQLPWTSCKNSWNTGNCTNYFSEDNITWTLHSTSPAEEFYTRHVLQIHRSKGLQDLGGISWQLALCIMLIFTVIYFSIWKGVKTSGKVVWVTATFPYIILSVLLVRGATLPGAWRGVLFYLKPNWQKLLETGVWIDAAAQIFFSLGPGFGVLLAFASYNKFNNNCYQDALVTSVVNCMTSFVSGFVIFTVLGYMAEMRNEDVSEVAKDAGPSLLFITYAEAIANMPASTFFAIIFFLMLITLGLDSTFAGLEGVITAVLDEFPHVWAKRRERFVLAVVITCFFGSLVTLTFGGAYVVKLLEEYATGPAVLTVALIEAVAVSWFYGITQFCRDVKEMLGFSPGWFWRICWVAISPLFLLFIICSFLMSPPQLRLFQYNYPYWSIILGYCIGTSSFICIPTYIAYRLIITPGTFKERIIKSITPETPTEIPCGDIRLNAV

Q: With `COc1ccc2c3c([nH]c2c1)CCN(C)CC3` [TBG] as the compound, how does the “effect on heroin SA” value [1] read?
A: Its value is “no lasting effect on heroin SA”.

Q: With `Cc1cc(C)cc([C@@H]2CCCN2Cc2ccc(Oc3ccc(C(N)=O)cc3F)cc2)c1` [Aticaprant (ATI)] as the compound, how does the “Open field total locomotion, individual animals (Fig. 3h source data)” value [2] read?
A: Its value is 98.5549 and 70.7237 and 76.3275 and 70.7309 and 115.865 and 89.5078 and 98.6683 and 78.3135.

Q: With `CN(C)CCCN1c2ccccc2CCc2ccccc21` [Imipramine, imipramine hydrochloride] as the compound, how does the Emax [3] read?
A: The Emax was 100%.

Q: With `C[C@H]1CNCCc2ccc(Cl)cc21` [Lorcaserin, lorcaserin] as the compound, how does the “suppression of cocaine SA” value [4] read?
A: The value was “the suppression effect completely dissipated as soon as the treatment ended”.

Q: Which “response, Fig. S5a concentration-response point” value ([5]; M = -4) does the source give for `CC[C@H]1C[C@H]2C[C@H]3c4[nH]c5ccc(O)cc5c4CCN(C2)[C@@H]13` [NORIBO] here?
A: Its value is 66.

Q: And the “response, Fig. S5a concentration-response point” value ([5]; M = -4.5)?
A: The value was 55.

Q: What about the “response, Fig. S5a concentration-response point” value ([5]; M = -5) of the same compound?
A: The value was 39.

Q: And the “response, Fig. S5a concentration-response point” value ([5]; M = -5.5)?
A: The value was 20.

Q: What about the “response, Fig. S5a concentration-response point” value ([5]; M = -6) of the same compound?
A: Its value is 7.

Q: And the “response, Fig. S5a concentration-response point” value ([5]; M = -6.5)?
A: Its value is 2.

Q: For Epi-oxa-ibogamine, which EC50 [6] is on record?
A: The EC50 was > 10 µM.

Q: And the “% effect at 100 µM” value [6]?
A: Its value is 46%.

Q: With `Cc1cc(C)cc([C@@H]2CCCN2Cc2ccc(Oc3ccc(C(N)=O)cc3F)cc2)c1` [aticaprant] as the compound, how does the “effect of pre-treatment on oxa-noribogaine-induced GDNF increase” value [7] read?
A: The value was “the induction of GDNF was blocked in both mPFC and VTA; also recorded: prevents the increase of GDNF expression in mPFC and VTA”.

Q: With `COCC[C@H]1CC2CN3CCc4c([nH]c5ccccc45)[C@](C(=O)OC)(C2)[C@H]13` [18MC, 18-methoxycoronaridine] as the compound, how does the “effect on morphine intake” value [8] read?
A: The value was “efficacy and duration of effect on morphine intake comparable to ibogaine and noribogaine”.

Q: Which EC50 [6] does the source give for Oxa-ibogamine here?
A: Its EC50 is > 10 µM.

Q: What about the “% effect at 100 µM” value [6] of the same compound?
A: The value was 56%.
